PubChem BioAssay (NCI)
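GI50 marks 50% less growth. TGI is the concentration that stops growth completely.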

Key:
Assay in all cases: growth of human tumour cells (NCI), 384-well format
SF-295 CNS = test system: SF-295 CNS
ACHN renal = test system: ACHN renal
NCI-H226 lung = test system: NCI-H226 lung
U251 glioblastoma = test system: U251 glioblastoma
HCT-116 colon = test system: HCT-116 colon
HL-60(TB) leukemia = test system: HL-60(TB) leukemia
UACC-257 melanoma = test system: UACC-257 melanoma
SN12C renal = test system: SN12C renal
MOLT-4 leukemia = test system: MOLT-4 leukemia
HS 578T breast = test system: HS 578T breast
COLO 205 colon = test system: COLO 205 colon
OVCAR-4 ovarian = test system: OVCAR-4 ovarian
UO-31 renal = test system: UO-31 renal
A549 NSCLC = test system: A549 NSCLC
EKVX NSCLC = test system: EKVX NSCLC
SK-MEL-28 melanoma = test system: SK-MEL-28 melanoma
NCI/ADR-RES ovarian = test system: NCI/ADR-RES ovarian
PC-3 prostate = test system: PC-3 prostate
SNB-75 CNS = test system: SNB-75 CNS
M14 melanoma = test system: M14 melanoma
BT-549 breast = test system: BT-549 breast
NCI-H322M lung = test system: NCI-H322M lung
786-0 renal = test system: 786-0 renal
CAKI-1 renal = test system: CAKI-1 renal
HT29 colon = test system: HT29 colon
HCT-15 colon = test system: HCT-15 colon
T-47D breast = test system: T-47D breast
NCI-H23 lung = test system: NCI-H23 lung
OVCAR-3 ovarian = test system: OVCAR-3 ovarian
SR leukemia = test system: SR leukemia
NCI-H522 lung = test system: NCI-H522 lung
MDA-MB-468 breast = test system: MDA-MB-468 breast
DU-145 prostate = test system: DU-145 prostate
NCI-H460 NSCLC = test system: NCI-H460 NSCLC
MDA-MB-435 melanoma = test system: MDA-MB-435 melanoma
HCC-2998 colon = test system: HCC-2998 colon
SF-268 CNS = test system: SF-268 CNS
RPMI-8226 leukemia = test system: RPMI-8226 leukemia
MDA-MB-231 breast = test system: MDA-MB-231 breast
UACC-62 melanoma = test system: UACC-62 melanoma
SK-MEL-5 melanoma = test system: SK-MEL-5 melanoma
A498 renal = test system: A498 renal
TK-10 renal = test system: TK-10 renal
LOX IMVI melanoma = test system: LOX IMVI melanoma
SW-620 colon = test system: SW-620 colon
SK-OV-3 ovarian = test system: SK-OV-3 ovarian
HOP-62 NSCLC = test system: HOP-62 NSCLC
MCF7 breast = test system: MCF7 breast
IGROV1 ovarian = test system: IGROV1 ovarian
OVCAR-8 ovarian = test system: OVCAR-8 ovarian
KM12 colon = test system: KM12 colon
SNB-19 CNS = test system: SNB-19 CNS
MALME-3M melanoma = test system: MALME-3M melanoma
HOP-92 NSCLC = test system: HOP-92 NSCLC
SF-539 CNS = test system: SF-539 CNS
RXF 393 renal = test system: RXF 393 renal
OVCAR-5 ovarian = test system: OVCAR-5 ovarian

Q: What does the source list for `COC(=O)C[C@](O)(CCCC(C)(C)O)C(=O)O[C@@H]1C(OC)=C[C@]23CCCN2CCc2cc4c(cc2[C@H]13)OCO4`?
A: GI50 (SF-295 CNS): 26 nM; TGI (SF-295 CNS): 55.9 nM; GI50 (ACHN renal): 43.2 nM; TGI (ACHN renal): 304 nM; GI50 (NCI-H226 lung): 11.9 nM; TGI (NCI-H226 lung): 38 nM; GI50 (U251 glioblastoma): 21.4 nM; TGI (U251 glioblastoma): 66.9 nM; GI50 (HCT-116 colon): < 10 nM; TGI (HCT-116 colon): 88.7 nM; GI50 (HL-60(TB) leukemia): < 10 nM; TGI (HL-60(TB) leukemia): < 10 nM; GI50 (UACC-257 melanoma): 26.5 nM; TGI (UACC-257 melanoma): 65.6 nM; GI50 (SN12C renal): 40.4 nM; TGI (SN12C renal): 267 nM; GI50 (MOLT-4 leukemia): < 10 nM; TGI (MOLT-4 leukemia): < 10 nM; GI50 (HS 578T breast): 18 nM; TGI (HS 578T breast): 34.6 nM; GI50 (COLO 205 colon): 25.9 nM; TGI (COLO 205 colon): 120 nM; GI50 (OVCAR-4 ovarian): 26.5 nM; TGI (OVCAR-4 ovarian): 72.1 nM; GI50 (UO-31 renal): 295 nM; TGI (UO-31 renal): 1090 nM; GI50 (A549 NSCLC): 18 nM; TGI (A549 NSCLC): 115 nM; GI50 (EKVX NSCLC): 36.5 nM; TGI (EKVX NSCLC): 201 nM; GI50 (SK-MEL-28 melanoma): 25.7 nM; TGI (SK-MEL-28 melanoma): 62.5 nM; GI50 (NCI/ADR-RES ovarian): 1780 nM; TGI (NCI/ADR-RES ovarian): 7740 nM; GI50 (PC-3 prostate): 26 nM; TGI (PC-3 prostate): 139 nM; GI50 (SNB-75 CNS): 32.1 nM; TGI (SNB-75 CNS): 78.9 nM; GI50 (M14 melanoma): 20.3 nM; TGI (M14 melanoma): 41.6 nM; GI50 (BT-549 breast): 17.1 nM; TGI (BT-549 breast): 34.8 nM; GI50 (NCI-H322M lung): 84.4 nM; TGI (NCI-H322M lung): 287 nM; GI50 (786-0 renal): 26 nM; TGI (786-0 renal): 147 nM; GI50 (CAKI-1 renal): 42.4 nM; TGI (CAKI-1 renal): 266 nM; GI50 (HT29 colon): 21.4 nM; TGI (HT29 colon): 66.3 nM; GI50 (HCT-15 colon): 47.7 nM; TGI (HCT-15 colon): 233 nM; GI50 (T-47D breast): 27.5 nM; TGI (T-47D breast): 187 nM; GI50 (NCI-H23 lung): 17.6 nM; TGI (NCI-H23 lung): 36.9 nM; GI50 (OVCAR-3 ovarian): 13.8 nM; TGI (OVCAR-3 ovarian): 41.1 nM; GI50 (SR leukemia): < 10 nM; TGI (SR leukemia): < 10 nM; GI50 (NCI-H522 lung): < 10 nM; TGI (NCI-H522 lung): 17.3 nM; GI50 (MDA-MB-468 breast): < 10 nM; TGI (MDA-MB-468 breast): 19.9 nM; GI50 (DU-145 prostate): 29.9 nM; TGI (DU-145 prostate): 85 nM; GI50 (NCI-H460 NSCLC): < 10 nM; TGI (NCI-H460 NSCLC): 17 nM; GI50 (MDA-MB-435 melanoma): 43.4 nM; TGI (MDA-MB-435 melanoma): 130 nM; GI50 (HCC-2998 colon): < 10 nM; TGI (HCC-2998 colon): 25.3 nM; GI50 (SF-268 CNS): 31.1 nM; TGI (SF-268 CNS): 85.2 nM; GI50 (RPMI-8226 leukemia): < 10 nM; TGI (RPMI-8226 leukemia): 15.5 nM; GI50 (MDA-MB-231 breast): 31.6 nM; TGI (MDA-MB-231 breast): 105 nM; GI50 (UACC-62 melanoma): 31.8 nM; TGI (UACC-62 melanoma): 107 nM; GI50 (SK-MEL-5 melanoma): 13 nM; TGI (SK-MEL-5 melanoma): 36.6 nM; GI50 (A498 renal): 19 nM; TGI (A498 renal): 44.9 nM; GI50 (TK-10 renal): 48.7 nM; TGI (TK-10 renal): 894 nM; GI50 (LOX IMVI melanoma): < 10 nM; TGI (LOX IMVI melanoma): 21.9 nM; GI50 (SW-620 colon): 30.4 nM; TGI (SW-620 colon): 183 nM; GI50 (SK-OV-3 ovarian): 26 nM; TGI (SK-OV-3 ovarian): 172 nM; GI50 (HOP-62 NSCLC): 26.3 nM; TGI (HOP-62 NSCLC): 134 nM; GI50 (MCF7 breast): < 10 nM; TGI (MCF7 breast): 1450 nM; GI50 (IGROV1 ovarian): 24 nM; TGI (IGROV1 ovarian): 115 nM; GI50 (OVCAR-8 ovarian): 25.9 nM; TGI (OVCAR-8 ovarian): 66.8 nM; GI50 (KM12 colon): 27.5 nM; TGI (KM12 colon): 183 nM; GI50 (SNB-19 CNS): 29.8 nM; TGI (SNB-19 CNS): > 100000 nM; GI50 (MALME-3M melanoma): 15 nM; TGI (MALME-3M melanoma): 33.2 nM; GI50 (HOP-92 NSCLC): 37.9 nM; TGI (HOP-92 NSCLC): 102 nM; GI50 (SF-539 CNS): 17.2 nM; TGI (SF-539 CNS): 33.3 nM; GI50 (RXF 393 renal): 17.4 nM; TGI (RXF 393 renal): 47.9 nM; GI50 (OVCAR-5 ovarian): 48.9 nM; TGI (OVCAR-5 ovarian): 806 nM
